Measurements reported in PubChem BioAssay (NCI).
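Each compound was tested at five concentrations against cells in 96-well plates for 48 hours. TGI denotes the concentration required for complete inhibition of growth.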

What was measured:
Experiment in all cases: inhibition of tumour cell growth, NCI panel, 48 h
M19-MEL melanoma = tested on: M19-MEL melanoma
OVCAR-3 ovarian = tested on: OVCAR-3 ovarian
HCT-116 colon = tested on: HCT-116 colon
EKVX NSCLC = tested on: EKVX NSCLC
XF 498 CNS = tested on: XF 498 CNS
HCC-2998 colon = tested on: HCC-2998 colon
HCT-15 colon = tested on: HCT-15 colon
LXFL 529 NSCLC = tested on: LXFL 529 NSCLC
NCI-H23 lung = tested on: NCI-H23 lung
UO-31 renal = tested on: UO-31 renal
SK-MEL-2 melanoma = tested on: SK-MEL-2 melanoma
NCI-H522 lung = tested on: NCI-H522 lung
RPMI-8226 leukemia = tested on: RPMI-8226 leukemia
SK-OV-3 ovarian = tested on: SK-OV-3 ovarian
SR leukemia = tested on: SR leukemia
OVCAR-4 ovarian = tested on: OVCAR-4 ovarian
786-0 renal = tested on: 786-0 renal
UACC-257 melanoma = tested on: UACC-257 melanoma
SW-620 colon = tested on: SW-620 colon
HL-60(TB) leukemia = tested on: HL-60(TB) leukemia
K-562 leukemia = tested on: K-562 leukemia
SF-268 CNS = tested on: SF-268 CNS
KM12 colon = tested on: KM12 colon
NCI-H460 lung = tested on: NCI-H460 lung
CAKI-1 renal = tested on: CAKI-1 renal
HOP-62 NSCLC = tested on: HOP-62 NSCLC
KM20L2 colon = tested on: KM20L2 colon
MOLT-4 leukemia = tested on: MOLT-4 leukemia
RXF 393 renal = tested on: RXF 393 renal
DMS 273 small cell lung = tested on: DMS 273 small cell lung
SK-MEL-5 melanoma = tested on: SK-MEL-5 melanoma
U251 CNS = tested on: U251 CNS
SF-295 CNS = tested on: SF-295 CNS
A498 renal = tested on: A498 renal
HT29 colon = tested on: HT29 colon
DMS 114 small cell lung = tested on: DMS 114 small cell lung
OVCAR-5 ovarian = tested on: OVCAR-5 ovarian
CCRF-CEM leukemia = tested on: CCRF-CEM leukemia
A549 NSCLC = tested on: A549 NSCLC
M14 melanoma = tested on: M14 melanoma
SNB-78 CNS = tested on: SNB-78 CNS
SN12C renal = tested on: SN12C renal
HOP-18 NSCLC = tested on: HOP-18 NSCLC
SF-539 CNS = tested on: SF-539 CNS
SNB-19 CNS = tested on: SNB-19 CNS
MALME-3M melanoma = tested on: MALME-3M melanoma
NCI-H226 lung = tested on: NCI-H226 lung
UACC-62 melanoma = tested on: UACC-62 melanoma
LOX IMVI melanoma = tested on: LOX IMVI melanoma
HOP-92 NSCLC = tested on: HOP-92 NSCLC
TK-10 renal = tested on: TK-10 renal
COLO 205 colon = tested on: COLO 205 colon
DLD-1 colon = tested on: DLD-1 colon
OVCAR-8 ovarian = tested on: OVCAR-8 ovarian
ACHN renal = tested on: ACHN renal
IGROV1 ovarian = tested on: IGROV1 ovarian
SNB-75 CNS = tested on: SNB-75 CNS
SK-MEL-28 melanoma = tested on: SK-MEL-28 melanoma

O=C(O)c1cc2c3c(c1)[C@H]1C=CC[C@H]1CN3CC1CC=CC21 (some centres undefined)
TGI (M19-MEL melanoma): > 100 µM
TGI (OVCAR-3 ovarian): > 100 µM
TGI (HCT-116 colon): > 100 µM
TGI (EKVX NSCLC): > 100 µM
TGI (XF 498 CNS): > 100 µM
TGI (HCC-2998 colon): > 100 µM
TGI (HCT-15 colon): > 100 µM
TGI (LXFL 529 NSCLC): > 100 µM
TGI (NCI-H23 lung): > 100 µM
TGI (UO-31 renal): > 100 µM
TGI (SK-MEL-2 melanoma): > 100 µM
TGI (NCI-H522 lung): > 100 µM
TGI (RPMI-8226 leukemia): > 100 µM
TGI (SK-OV-3 ovarian): > 100 µM
TGI (SR leukemia): > 100 µM
TGI (OVCAR-4 ovarian): > 100 µM
TGI (786-0 renal): > 100 µM
TGI (UACC-257 melanoma): > 100 µM
TGI (SW-620 colon): > 100 µM
TGI (HL-60(TB) leukemia): > 100 µM
TGI (K-562 leukemia): > 100 µM
TGI (SF-268 CNS): > 100 µM
TGI (KM12 colon): > 100 µM
TGI (NCI-H460 lung): > 100 µM
TGI (CAKI-1 renal): > 100 µM
TGI (HOP-62 NSCLC): > 100 µM
TGI (KM20L2 colon): > 100 µM
TGI (MOLT-4 leukemia): > 100 µM
TGI (RXF 393 renal): > 100 µM
TGI (DMS 273 small cell lung): > 100 µM
TGI (SK-MEL-5 melanoma): > 100 µM
TGI (U251 CNS): > 100 µM
TGI (SF-295 CNS): > 100 µM
TGI (A498 renal): > 100 µM
TGI (HT29 colon): > 100 µM
TGI (DMS 114 small cell lung): > 100 µM
TGI (OVCAR-5 ovarian): > 100 µM
TGI (CCRF-CEM leukemia): > 100 µM
TGI (A549 NSCLC): > 100 µM
TGI (M14 melanoma): > 100 µM
TGI (SNB-78 CNS): > 100 µM
TGI (SN12C renal): > 100 µM
TGI (HOP-18 NSCLC): > 100 µM
TGI (SF-539 CNS): > 100 µM
TGI (SNB-19 CNS): > 100 µM
TGI (MALME-3M melanoma): > 100 µM
TGI (NCI-H226 lung): > 100 µM
TGI (UACC-62 melanoma): > 100 µM
TGI (LOX IMVI melanoma): > 100 µM
TGI (HOP-92 NSCLC): > 100 µM
TGI (TK-10 renal): > 100 µM
TGI (COLO 205 colon): > 100 µM
TGI (DLD-1 colon): > 100 µM
TGI (OVCAR-8 ovarian): > 100 µM
TGI (ACHN renal): > 100 µM
TGI (IGROV1 ovarian): > 100 µM
TGI (SNB-75 CNS): > 100 µM

CCN(CC)CCNC(=O)c1ccccc1Nc1c(Cl)cccc1Cl
TGI (M19-MEL melanoma): 30.2 µM
TGI (HCT-116 colon): 25.7 µM
TGI (EKVX NSCLC): 26.6 µM
TGI (XF 498 CNS): 16.5 µM
TGI (HCC-2998 colon): 21 µM
TGI (HCT-15 colon): 26 µM
TGI (LXFL 529 NSCLC): 30.5 µM
TGI (SK-MEL-28 melanoma): 33 µM
TGI (NCI-H23 lung): 33.3 µM
TGI (UO-31 renal): 22.2 µM
TGI (RPMI-8226 leukemia): 30.2 µM
TGI (SK-OV-3 ovarian): 30.4 µM
TGI (SR leukemia): 34.2 µM
TGI (OVCAR-4 ovarian): 30.2 µM
TGI (786-0 renal): 19 µM
TGI (UACC-257 melanoma): 29 µM
TGI (SW-620 colon): 29.6 µM
TGI (HL-60(TB) leukemia): 25.5 µM
TGI (SF-268 CNS): 34.7 µM
TGI (NCI-H460 lung): 16 µM
TGI (HOP-62 NSCLC): 24.2 µM
TGI (KM20L2 colon): 7.27 µM
TGI (MOLT-4 leukemia): 31.2 µM
TGI (RXF 393 renal): 27.9 µM
TGI (DMS 273 small cell lung): 30.6 µM
TGI (SK-MEL-5 melanoma): 24.2 µM
TGI (U251 CNS): 20.7 µM
TGI (HT29 colon): 19 µM
TGI (DMS 114 small cell lung): 24.8 µM
TGI (OVCAR-5 ovarian): 20.4 µM
TGI (CCRF-CEM leukemia): 35.2 µM
TGI (A549 NSCLC): 32.6 µM
TGI (M14 melanoma): 34.5 µM
TGI (SNB-78 CNS): 33.1 µM
TGI (SN12C renal): 27.1 µM
TGI (SF-539 CNS): 32.7 µM
TGI (SNB-19 CNS): 30.9 µM
TGI (NCI-H226 lung): 38.5 µM
TGI (UACC-62 melanoma): 32.1 µM
TGI (LOX IMVI melanoma): 24.3 µM
TGI (TK-10 renal): 24.8 µM
TGI (COLO 205 colon): 26.7 µM
TGI (DLD-1 colon): 24.7 µM
TGI (OVCAR-8 ovarian): 31.5 µM
TGI (ACHN renal): 31.3 µM
TGI (IGROV1 ovarian): 36.1 µM
TGI (SNB-75 CNS): 23.8 µM
